Paper PMC7854658, “Structural basis for ligand recognition of the neuropeptide Y Y2 receptor” (Nature Communications, 2021)
Like-named read-outs stand apart in the source and are kept apart here.

Legend:
[1] = test system: Y2R; parameters: method as in earlier work; details: ref Swanson, D.M. et al., Bioorg. Med. Chem. Lett. 21:5552-5556, 2011; read-out: Y2R affinity IC50; cited from earlier work
[2] = target: Y2R mutant D292^6.59N (hY2R_eYFP_pVitro2) (human) (UniProt P49146)
[3] = target: wild-type human Y2R with C-terminal eYFP (hY2R_eYFP_pVitro2) (human) (UniProt P49146)
[4] = target: Y2R mutant Y110^2.64A (hY2R_eYFP_pVitro2) (human) (UniProt P49146)
[5] = target: Y2R mutant Q130^3.32H (hY2R_eYFP_pVitro2) (human) (UniProt P49146)
[6] = test system: NPY receptors; details: cited from earlier work
[7] = target: T1, Y2R mutant Q130^3.32H (Homo sapiens, UniProt P49146, Q130H); assay: NPY-induced IP accumulation (IP-One), mutant; assay type: cell-based; details: 1 μM antagonist
T1 construct: expressed in transfected cells; host or cells: HEK293
T1 sequence (P49146 whole entry Q130H): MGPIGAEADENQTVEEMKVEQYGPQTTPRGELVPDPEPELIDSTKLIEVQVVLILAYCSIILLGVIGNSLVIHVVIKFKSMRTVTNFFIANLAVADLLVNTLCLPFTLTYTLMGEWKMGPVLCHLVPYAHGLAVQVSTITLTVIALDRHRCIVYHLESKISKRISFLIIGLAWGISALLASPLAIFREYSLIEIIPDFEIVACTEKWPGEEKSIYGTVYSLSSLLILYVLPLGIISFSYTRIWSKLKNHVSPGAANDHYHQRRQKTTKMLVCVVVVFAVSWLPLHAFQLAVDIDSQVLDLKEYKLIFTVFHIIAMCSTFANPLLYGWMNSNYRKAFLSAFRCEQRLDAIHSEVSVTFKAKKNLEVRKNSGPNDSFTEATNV
Experimental: The plasmid hY2R_eYFP_pVitro2 encoding the WT Y2R and a fluorophore for investigating the receptor localization was used as template for the generation of receptor point mutations as previously described. Mutagenesis PCR was performed using the Phusion High-Fidelity Polymerase (Thermo Fisher Scientific, Waltham, MA, USA). […] The preparations of the plasmid DNA were performed using the Wizard plus Mini or Midi DNA purification kit (Promega, Madison, WI, USA).
(§1) To determine the contribution of residues to antagonist binding, IP-One accumulation assays (Cisbio, Codolet, France) were performed. HEK293 cells were seeded into six-well plates and transiently cotransfected with 3200 ng of receptor plasmid DNA and 800 ng of the chimeric G protein (Gα∆6qi4myr) to redirect the Gαi signaling pathway to the Gαq phospholipase C pathway. Transient transfection was carried out using Metafectene as transfection reagent according to the manufacturer’s protocol (Biontex, Munich, Germany) over night. The cells were then reseeded into white 384-well microplates (Greiner Bio-One, Kremsmünster, Austria) at a density of 15,000 cells per well and grown for additional 24 h.
All dilutions were performed in HBSS containing 20 mM LiCl (stimulation buffer) and DMSO with a final concentration of 0.01%.
To determine the amount of cellular IPs, the FRET acceptor (IP1-d2) and the FRET donor (anti-IP1-Cryptate) were reconstituted and diluted in lysis and detection buffer (1:20) as described in the manufacturer’s protocol. Three microliters of both solutions were added, and the cells were incubated on a tumbler for 60 min.

[8] = target: T2, wild-type Y2R (Homo sapiens, UniProt P49146); assay: Dose-dependent inhibition of NPY (0.3 nM)-induced IP accumulation; assay type: cell-based; details: read-out: pIC50 ± SEM, inhibition of NPY-induced IP accumulation (converted)
T2 construct: expressed in transfected cells; host or cells: HEK293
T2 sequence (P49146 1-381): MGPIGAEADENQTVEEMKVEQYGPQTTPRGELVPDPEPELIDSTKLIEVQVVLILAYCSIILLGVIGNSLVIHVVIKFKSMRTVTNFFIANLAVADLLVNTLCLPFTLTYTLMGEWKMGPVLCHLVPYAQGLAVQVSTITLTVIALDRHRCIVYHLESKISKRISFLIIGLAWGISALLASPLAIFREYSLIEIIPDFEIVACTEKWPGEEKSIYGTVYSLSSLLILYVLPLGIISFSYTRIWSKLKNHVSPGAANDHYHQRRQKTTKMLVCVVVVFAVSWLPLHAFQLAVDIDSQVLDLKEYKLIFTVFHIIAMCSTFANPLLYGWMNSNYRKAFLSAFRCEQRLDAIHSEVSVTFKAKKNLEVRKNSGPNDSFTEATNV
Experimental: To determine the contribution of residues to antagonist binding, IP-One accumulation assays (Cisbio, Codolet, France) were performed. […] The cells were then reseeded into white 384-well microplates (Greiner Bio-One, Kremsmünster, Austria) at a density of 15,000 cells per well and grown for additional 24 h. […] Three microliters of both solutions were added, and the cells were incubated on a tumbler for 60 min.

[9] = target: T3, Y2R crystallization construct without flavodoxin in ICL3 (construct_no flavodoxin) (Homo sapiens, UniProt P49146, H149Y/S280C); assay: as above; assay type: cell-based; details: read-out: pIC50 ± SEM, inhibition of NPY-induced IP accumulation (converted)
T3 construct: expressed in transfected cells; host or cells: HEK293
T3 sequence (P49146 1-353 H149Y/S280C): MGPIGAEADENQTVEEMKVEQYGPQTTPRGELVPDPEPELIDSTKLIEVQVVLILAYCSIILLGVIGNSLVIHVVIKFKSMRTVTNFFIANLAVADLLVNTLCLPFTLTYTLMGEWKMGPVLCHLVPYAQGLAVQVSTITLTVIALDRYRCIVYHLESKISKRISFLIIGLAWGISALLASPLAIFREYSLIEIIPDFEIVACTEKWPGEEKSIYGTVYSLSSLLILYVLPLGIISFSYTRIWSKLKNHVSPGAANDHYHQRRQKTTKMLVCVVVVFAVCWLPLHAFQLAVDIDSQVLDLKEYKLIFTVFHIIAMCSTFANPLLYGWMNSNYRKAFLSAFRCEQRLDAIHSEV
Experimental: as §1, with “([…])” for “(Gα∆6qi4myr)”, “manufacturer's” for “manufacturer’s”, “h. […] The cells were stimulated at 37 °C and 5% CO2 in humidified atmosphere for 90 min. The exact value of the effective concentration (ECx) at the day of the assay was determined by control curves in the absence of antagonist. To determine the amount of cellular IPs, the FRET acceptor (IP1-d2) and the FRET donor (anti-IP1-Cryptate) were reconstituted and diluted in lysis and detection buffer (1:20) as described in the manufacturer's protocol. Three microliters of both solutions were added, and the cells were incubated on a tumbler for 60 min.” for “h.”

[10] = target: T4, modified Y2R used for crystallization without N-terminal T4L (Construct_no T4L) (Homo sapiens, UniProt P49146, DEL251-256/H149Y/S280C); assay: NanoBRET-based binding assay (K18(TAMRA)-NPY); details: 300 nM K18(TAMRA)-NPY
T4 construct: eYFP (from the vector name) (C); expressed in transfected cells; host or cells: HEK293 (membrane preparations)
T4 sequence (P49146 with tags, fused parts or gaps H149Y/DEL251-256/S280C): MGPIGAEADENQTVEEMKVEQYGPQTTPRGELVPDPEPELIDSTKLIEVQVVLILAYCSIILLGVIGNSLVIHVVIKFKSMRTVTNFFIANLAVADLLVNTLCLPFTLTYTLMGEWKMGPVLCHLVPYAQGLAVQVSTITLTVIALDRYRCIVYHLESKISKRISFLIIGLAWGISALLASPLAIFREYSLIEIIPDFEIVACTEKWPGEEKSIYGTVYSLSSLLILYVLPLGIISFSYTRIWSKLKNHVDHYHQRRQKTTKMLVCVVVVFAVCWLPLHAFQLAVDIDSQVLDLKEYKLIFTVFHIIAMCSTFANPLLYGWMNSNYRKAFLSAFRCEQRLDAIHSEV
Experimental: (§2) For this purpose, a Nanoluciferase[44] (Promega, Madison, WO, USA) followed by a flexible […] terminus of the receptor in an Y2-eYFP_N1 vector[45]. The Nanoluciferase replaced the similarly sized N-terminal T4L fusion in the crystallization construct. To facilitate correct expression of this large N-terminal domain and export to the plasma membrane, a signal sequence of human interleukin 6 ([…]) was used[44]. HEK293 cells were transiently transfected with 8 μg of the corresponding vectors per T75 flask using MetafectenePro (Biontex) following the manufacturer's instructions. Twenty-four hours post transfection, the cells were harvested in PBS (-Ca^2+; -Mg^2+) and frozen (-80 °C). The membranes were prepared as described previously. Briefly, the cells were lysed in a hypotonic TRIS buffer (50 mM Tris-HCl, pH 7.5 and 50 μM Pefabloc SC) and homogenized using a manual dounce homogenizer for 15 times. Nuclei and cell debris was removed by centrifugation at 820 × g for 10 min (4 °C), and the microsomal membranes in the supernatant were collected by centrifugation at 20,000 × g for 60 min (4 °C). […] The total protein amount was determined by a Bradford assay. The membrane preparations were stored in aliquots at -80 °C. […] Directly before the measurement, 10 μl coelenterazine H in HBSS/HEPES was added to a final concentration of 4 μM. […] The BRET ratio was calculated by the ratio of F/L, and corrected by the background values. The IC50 values were determined using a three-parameter logistic fit in the GraphPad Prism 5 software (GraphPad Software, San Diego, CA, USA).

[11] = target: T2, wild-type Y2R; assay: NanoBRET-based binding assay (K18(TAMRA)-NPY); details: read-out: pIC50 ± SEM, NanoBRET binding (converted)
Experimental: as §2

CCN(CC)C(=O)C(c1ccccc1)N1CCN(c2ccc(NC(=O)c3ccccc3-c3cccnc3)cc2F)CC1 (single isomer, unassigned) [S-isomer]
IC50 [1]: 14 ± 3 nM

CCN(CC)C(=O)C(c1ccccc1)N1CCN(c2ccc(NC(=O)c3ccccc3-c3cccnc3)cc2F)CC1 (single isomer, unassigned) [R-isomer]
IC50 [1]: 9 ± 2 nM

neuropeptide Y (NPY) (from UniProt P01303 29-64)
fold change of the EC50 of NPY in triggering Y2R signaling (IP accumulation) against the wild-type Y2R [2]: 233 fold
EC50 of NPY-induced IP accumulation (IP-One assay, HEK293 cells with chimeric G protein) [3]: 0.06 nM
EC50 of NPY-induced IP accumulation (IP-One assay, HEK293 cells with chimeric G protein) [4]: 1.8 nM
fold change of the EC50 of NPY-induced receptor signaling (IP accumulation) against the wild-type Y2R [5]: 132 fold

CCN(CC)C(=O)C(c1ccccc1)N1CCN(c2ccc(NC(=O)c3ccccc3-c3cccnc3)cc2F)CC1 (stereo not shown) [JNJ-31020028, N-(4-{4-[2-(diethylamino)-2-oxo-1-phenylethyl]piperazin-1-yl}-3-fluorophenyl)-2-pyridin-3-ylbenzamide]
Higher binding affinity to Y2R over the other NPY receptors [6]: over 100 fold
Antagonistic activity compared to WT (in words) [7]: increased antagonistic activity
IC50 [8]: 47.9 nM
IC50 [9]: 60.3 nM
IC50 ([10]; read-out: IC50, NanoBRET binding): 0.7 nM
IC50 ([10]; read-out: pIC50 ± SEM, NanoBRET binding (converted)): 0.676 nM
IC50 [11]: 1.29 nM
